One series can be described thus: PAMPA permeability. Particulars: 5 hours at RT; for Papp at 5 h, 20 μM: PAMPA. (In general: PAMPA measures passive passage across an artificial lipid membrane.)
For series [1], the system named is CaCo-2 intestinal epithelial cells. As to the kind of experiment: Transepithelial resistance (TEER) of CaCo-2 cells exposed to TNFα and IFNγ. The class given is cell-based. Conditions: CaCo-2; TNFα along with compounds. The method, then: The intestinal epithelial barrier plays a central role in the pathophysiology of multiple chronic inflammatory and autoimmune diseases. Intestinal epithelial cells provide a physical barrier that interacts with immune cells and protects internal cavities from mucosal bacterial and antigen intrusion. Intestinal inflammation during IBD is associated with disruption of this barrier and cytokines like TNFα play important roles.
At confluence TEER is measured and TNFα along with compounds are added as described above. Compound-induced TEER is determined after correction with measurement prior to treatment.

The test system of series [2] is C57BL/6 mice with DSS colitis. Briefly: DSS colitis in C57BL/6 mice. The class given is in vivo. Particulars: 25 mg/kg PO daily; day twelve. How it is done:
Dextran sodium sulfate (DSS) was added to the water 24 hrs after compound administration and weight was measured daily.
C57BL/6 mice (20-22 grams) were fed ad lib and assigned to 4 different groups (n=8/group). […] A control group received vehicle alone. After 24 hrs, mice were weighed and DSS was added to their drinking water. Mice were then treated with the test compounds and weighed daily and the DSS water was replenished every 72 hrs for 5 days, at which point, it was replaced by regular drinking water. Mice were sacrificed on day twelve and clinical scored was assessed. Intestinal tissue for and blood were also collected. Tissues were either flash frozen and kept in −80° C. for RNA and protein isolation or placed in 10% formalin solution for future histological analysis. Blood was spun at 5K rpm for 5 min and serum was collected and kept at −20° C. for multiplex cytokine analysis.
DSS colitis mouse model: C57BL/6 mice (20-22 grains) are fed ad lib and assigned to different groups (n=8/group). […] A control group receives vehicle alone. After 24 h, mice are weighed and DSS is added to their drinking water. Mice are then treated with the test compounds and weighed daily and the DSS water is replenished every 72 liars for 5 days, at which point, it is replaced by regular drinking water. Mice are sacrificed on day twelve and clinical scored was assessed. Intestinal tissue for and blood are also collected. Tissues are either flash frozen and kept in −80° C. for RNA and protein isolation or placed in 10% formalin solution for future histological analysis.

Where [3] appears, read: PAMPA permeability Classification, 20 μM donor.
Setting [4] is: Permeability, Pe, 20 μM donor in PBS/MeOH 90:10.

The results in this text go back to US11485728B2, “Small molecules for the treatment of autoimmune diseases and cancer” (Athos Therapeutics, Inc., priority 2020, dated 2022).

Source text for PAMPA permeability: Parallel artificial membrane permeability (PAMPA) assay is a non-cell based assay designed to predict in vivo biological membrane permeability of drugs in early stage of drug discovery. […] The Corning Gentest Pre-coated PAMPA plate system was designed by 96-well insert system with a 0.45 μm PVDF (polyvinylidene fluoride) filter plate which has been pre-coated with structured tri-layers of phospholipids (lipid/oil/lipid) and a matched receiver microplate.
Donor solutions of test compounds (300 μL, 20 μM in PBS/MeOH 90:10) were added to each well of the donor plate. 200 μL of PBS/MeOH 90:10 was added to each well of the acceptor plate. The acceptor plate was coupled with the donor plate and incubated for 5 hours at room temperature (RT) without agitation. In each plate, compounds were tested in triplicate. At the end of the incubation, drug concentration in the initial donor solution, acceptor and the donor wells were determined using LC/MS/MS. A five (5) points standard curve from 0.1 to 1000 nM for each test compound were prepared. Analyte samples were diluted to within standard curve concentration with ACN/H2O 50:50 prior analysis.
All samples were analyzed by electrospray ionization (ESI) liquid chromatograph/mass spectrometry (LC/MS) system utilizing Sciex 5500 quadropule ion trap (Qtrap) mass spectrometry with Shidmazu Nexera X2 UHPLC. The LC-MS/MS instrument monitored each of the test compound in the study based of their respective mass-to-charge (m/z) transitions and MS parameters. Chromatographic separation was achieved on Phenomenex Luna C18 column (50×2.0 mm, 3 μm particle size) by using a gradient elution: mobile phase A contains 0.1% formic acid in water and mobile phase B contains 0.1% formic acid in acetonitrile; A/B (99:1) from 0 to 1 minutes; to A/B (1:99) from 1 to 4 minutes; A/B (1:99) from 4 to 8 minutes; to A/B (99:1) from 8 to 8.20 minutes; A/B (99:1) from 8.2 to 9 minutes. The flow rate was 0.4 mL/min and the column temperature was maintained at 35° C. and autosampler temperature at 4° C. For detection, the electrospray ionization operated in the positive mode using multiple reaction monitoring (MRM).
Data acquisition, and peak integrations were obtained by Analyst® Version 1.7.1 (Sciex) operating with Windows® (Microsoft). The standard curve regressions and sample concentrations were generated and calculated by Analyst®. Concentrations in the sample solutions were determined based on the measured peak area ratios from the response of the analyte to the internal standard with reference to the standard calibration curve. All sample calculations were calculated using a linear regression with 1/x^2 weighting (where x is the concentration of given calibration standard level).
Permeability of the test compounds was calculated using the following formula:
The permeability of compounds was evaluated with the parallel artificial membrane permeation assay (PAMPA) as an in vivo model of passive diffusion across a porous filter coated with a lipid/oil/lipid tri-layer artificial membrane. […] Donor solutions of test compounds (300 μL, 20 μM in PBS/MeOH 90:10) were added to each well of the donor plate. 200 μL of PBS/MeOH 90:10 was added to each well of the acceptor plate. The acceptor plate was coupled with the donor plate and incubated for 5 hours at room temperature (RT) without agitation. In each plate, compounds were tested in triplicate. At the end of the incubation, drug concentration in the initial donor solution, acceptor and the donor wells were determined using LC/MS/MS. Permeability of test compounds was calculated based on the formula described in the General Procedures above. The PAMPA permeability classification criteria are categorized into three (3) classes with a high (Pe≥1.5×10−6 cm/s), intermediate (5.5×10−8<Pe<1.5×10−6 cm/s), and low (Pe<5.5×10−8 cm/s) permeability.

With “4-(4-((1-cyclopropylpiperidin-4-yl)amino)-6-methoxy-7-(3-(pyrrolidin-1-yl)propoxy)quinazolin-2-yl)thiomorpholine 1,1-dioxide [Compound 405, reference compound]”, the “Permeability, Pe” value in the series “PAMPA permeability” (20 μM donor in PBS/MeOH 90:10) amounted to 0.101 ×10⁻⁶ cm/s.
On to `COc1cc2c(N[C@@H]3CCCOC3)nc(N3CCC(F)(F)CC3)nc2cc1OCCCN1CCCC1` [Compound 12, (R)-2-(4,4-difluoropiperidin-1-yl)-6-methoxy-7-(3-(pyrrolidin-1-yl)propoxy)-N-(tetrahydro-2H-pyran-3-yl)quinazolin-4-amine], for which the TEER result in series [1] is reported as “++”. The “DSS Efficacy” value in series [2] is listed as “++”.
Consider `COc1cc2c(NC3CCCOC3)nc(N3CCC(F)(F)CC3)nc2cc1OCCCN1CCCC1` (centres unmarked) [Compound 14, 2-(4,4-difluoropiperidin-1-yl)-6-methoxy-7-(3-(pyrrolidin-1-yl)propoxy)-N-(tetrahydro-2H-pyran-3-yl)quinazolin-4-amine], for which the TEER result in series [1] was “+”. In series [2], the “DSS Efficacy” value is reported as “++”.
On to `COc1cc2c(NC3CCCS(=O)(=O)C3)nc(N3CCC(F)(F)CC3)nc2cc1OCCCN1CCCC1` (centres unmarked) [Compound 15, 3-((2-(4,4-difluoropiperidin-1-yl)-6-methoxy-7-(3-(pyrrolidin-1-yl)propoxy)quinazolin-4-yl)amino)tetrahydro-2H-thiopyran 1,1-dioxide], for which the TEER entry in series [1] was “++”. Also, the “DSS Efficacy” value in series [2] is “+”.
On the same counts, the results for `COc1cc2c(NCN3CCOCC3)nc(N3CCC(F)(F)CC3)nc2cc1OCCCN1CCCC1` [Compound 17, 2-(4,4-difluoropiperidin-1-yl)-6-methoxy-N-(morpholinomethyl)-7-(3-(pyrrolidin-1-yl)propoxy)quinazolin-4-amine] are “+” and “+”.
Regarding `COc1cc2c(NCCCOC(C)C)nc(N3CCC(F)(F)CC3)nc2cc1OCCCN1CCCC1` [Compound 21, 2-(4,4-difluoropiperidin-1-yl)-N-(3-isopropoxypropyl)-6-methoxy-7-(3-(pyrrolidin-1-yl)propoxy)quinazolin-4-amine], the TEER result in series [1] is recorded as “−”. The “DSS Efficacy” value in series [2] is listed as “+”.
`COc1cc2c(N[C@]3(N(C)C)C[C@@H](C)O[C@@H](C)C3)nc(N3CCC(F)(F)CC3)nc2cc1OCCCN1CCCC1` [Compound 25, (2R,4r,6S)—N-(2-(4,4-difluoropiperidin-1-yl)-6-methoxy-7-(3-(pyrrolidin-1-yl)propoxy)quinazolin-4-yl)-N′,N′,2,6-tetramethyltetrahydro-4H-pyran-4,4-diamine]: in series [1], the TEER entry was “+”. Also, the “DSS Efficacy” value in series [2] is on record as “+”.
For `COc1cc2c(Nc3ccccn3)nc(N3CCC(F)(F)CC3)nc2cc1OCCCN1CCCC1` [Compound 34, 2-(4,4-difluoropiperidin-1-yl)-6-methoxy-N-(pyridin-2-yl)-7-(3-(pyrrolidin-1-yl)propoxy)quinazolin-4-amine], the TEER result in series [1] was “−”. Moreover, the “DSS Efficacy” value in series [2] is on record as “−”.
Regarding `COc1cc2c(NCC#N)nc(N3CCC(F)(F)CC3)nc2cc1OCCCN1CCCC1` [Compound 49, 2-((2-(4,4-difluoropiperidin-1-yl)-6-methoxy-7-(3-(pyrrolidin-1-yl)propoxy)quinazolin-4-yl)amino)acetonitrile], the TEER entry in series [1] is reported as “−”. In addition, the “DSS Efficacy” value in series [2] is listed as “−”.
`COc1cc2c(NCO)nc(N3CCC(F)(F)CC3)nc2cc1OCCCN1CCCC1` [Compound 61, ((2-(4,4-difluoropiperidin-1-yl)-6-methoxy-7-(3-(pyrrolidin-1-yl)propoxy)quinazolin-4-yl)amino)methanol]: the TEER result in series [1] was “+”. In series [2], the “DSS Efficacy” value is “+”.
As for `COc1cc2c(NC3CCS(=O)(=O)CC3)nc(N3CCC3)nc2cc1OCCCN1CCCC1` [Compound 81, 4-((2-(azetidin-1-yl)-6-methoxy-7-(3-(pyrrolidin-1-yl)propoxy)quinazolin-4-yl)amino)tetrahydro-2H-thiopyran 1,1-dioxide], the TEER entry in series [1] was “+”. The “DSS Efficacy” value in series [2] was “++”.
`COc1cc2c(NC3CCS(=O)(=O)CC3)nc(C3CC3)nc2cc1OCCCN1CCCC1` [Compound 99, 4-((2-cyclopropyl-6-methoxy-7-(3-(pyrrolidin-1-yl)propoxy)quinazolin-4-yl)amino)tetrahydro-2H-thiopyran 1,1-dioxide]: in series [1], the TEER entry is on record as “++”. In addition, the “DSS Efficacy” value in series [2] is “++”.
Regarding `COc1cc2c(NC3CCS(=O)(=O)CC3)nc(SC(C)C)nc2cc1OCCCN1CCCC1` [Compound 105], in series [1], the TEER result is “+”. The “DSS Efficacy” value in series [2] was “+”.
With `COc1cc2c(NC3CCCS(=O)(=O)C3)nc(N3CCC3)nc2cc1OCCCN(C)C` (centres unmarked) [Compound 137], the TEER result in series [1] is listed as “+”. For the same molecule, the “DSS Efficacy” value in series [2] is “+”.
Turning to `COc1cc2c(NC3CCOCC3)nc(N3CCCCC3)nc2cc1OCCCN1CCCC1` [Compound 173, 6-methoxy-2-(piperidin-1-yl)-7-(3-(pyrrolidin-1-yl)propoxy)-N-(tetrahydro-2H-pyran-4-yl)quinazolin-4-amine], the TEER entry in series [1] is listed as “++”. Also, the “DSS Efficacy” value in series [2] is given as “++”.
With `COc1cc2c(NC3CCOCC3)nc(-c3ccc(C)o3)nc2cc1OCCCN1CCCC1` [Compound 180, 6-methoxy-2-(5-methylfuran-2-yl)-7-(3-(pyrrolidin-1-yl)propoxy)-N-(tetrahydro-2H-pyran-4-yl)quinazolin-4-amine], in series [1], the TEER result was “++”. In addition, the “DSS Efficacy” value in series [2] is “++”.
With `COc1cc2c(NCN3CCNCC3)nc(-c3cnc(C)s3)nc2cc1OCCCN1CCCC1` [Compound 213], the TEER entry in series [1] is given as “+”. Also, the “DSS Efficacy” value in series [2] is listed as “+”.
In the case of `COc1cc2c(NC3CCOCC3)nc(N3CCCC3)nc2cc1C#CCN1CCCC1` [Compound 250], the TEER entry in series [1] is reported as “++”. Further, the “DSS Efficacy” value in series [2] is reported as “++”.
As for `COc1cc2c(NC3CCS(=O)(=O)CC3)nc(N3CCCC3)nc2cc1C#CCN1CCCC1` [Compound 254], the TEER result in series [1] is listed as “+”. Also, the “DSS Efficacy” value in series [2] is given as “+”.
Consider `COc1cc2c(NC3CCN(C(C)C)CC3)nc(N3CCCN(C)CC3)nc2cc1OCCCN1CCCCC1` [Compound 403, reference compound], for which the values for the apparent permeability coefficient (Papp) at 5 h, 20 μM in the series “PAMPA permeability” (setting [3]) and in “PAMPA permeability” (setting [4]) were below 0.055 ×10⁻⁶ cm/s and 0.0096 ×10⁻⁶ cm/s, respectively.
Turning to `COc1cc2c(NC3CCN(C(C)C)CC3)nc(N3CCOCC3)nc2cc1OCCCN1CCCC1` [Compound 404, reference compound], the figures for the Papp at 5 h, 20 μM in “PAMPA permeability” (setting [3]) and in the series “PAMPA permeability” (setting [4]) were below 0.055 ×10⁻⁶ cm/s and 0.00624 ×10⁻⁶ cm/s, respectively.
